# Key:
# Assay in all cases: KinaseProfiler Assay
# DRAK1(h) = biological target: T1, DRAK1(h) (Homo sapiens, UniProt Q9UEE5)
# T1 sequence (Q9UEE5 1-414): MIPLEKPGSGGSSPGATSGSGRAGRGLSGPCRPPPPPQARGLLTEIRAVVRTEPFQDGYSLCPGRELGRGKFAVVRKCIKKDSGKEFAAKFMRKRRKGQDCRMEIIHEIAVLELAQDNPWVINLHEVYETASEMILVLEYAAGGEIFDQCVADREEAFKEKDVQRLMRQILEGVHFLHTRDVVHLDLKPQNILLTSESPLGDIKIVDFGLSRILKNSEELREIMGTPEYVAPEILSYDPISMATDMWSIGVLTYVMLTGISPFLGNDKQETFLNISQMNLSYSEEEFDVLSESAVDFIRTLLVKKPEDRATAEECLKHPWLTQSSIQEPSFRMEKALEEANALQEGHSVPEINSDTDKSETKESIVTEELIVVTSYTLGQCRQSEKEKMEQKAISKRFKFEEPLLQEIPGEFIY
# PDGFRα(V561D)(h) = PDGFRα(V561D)(h) (Homo sapiens, UniProt P16234, V561D)
# Chain of PDGFRα(V561D)(h) (P16234 24-1089 V561D): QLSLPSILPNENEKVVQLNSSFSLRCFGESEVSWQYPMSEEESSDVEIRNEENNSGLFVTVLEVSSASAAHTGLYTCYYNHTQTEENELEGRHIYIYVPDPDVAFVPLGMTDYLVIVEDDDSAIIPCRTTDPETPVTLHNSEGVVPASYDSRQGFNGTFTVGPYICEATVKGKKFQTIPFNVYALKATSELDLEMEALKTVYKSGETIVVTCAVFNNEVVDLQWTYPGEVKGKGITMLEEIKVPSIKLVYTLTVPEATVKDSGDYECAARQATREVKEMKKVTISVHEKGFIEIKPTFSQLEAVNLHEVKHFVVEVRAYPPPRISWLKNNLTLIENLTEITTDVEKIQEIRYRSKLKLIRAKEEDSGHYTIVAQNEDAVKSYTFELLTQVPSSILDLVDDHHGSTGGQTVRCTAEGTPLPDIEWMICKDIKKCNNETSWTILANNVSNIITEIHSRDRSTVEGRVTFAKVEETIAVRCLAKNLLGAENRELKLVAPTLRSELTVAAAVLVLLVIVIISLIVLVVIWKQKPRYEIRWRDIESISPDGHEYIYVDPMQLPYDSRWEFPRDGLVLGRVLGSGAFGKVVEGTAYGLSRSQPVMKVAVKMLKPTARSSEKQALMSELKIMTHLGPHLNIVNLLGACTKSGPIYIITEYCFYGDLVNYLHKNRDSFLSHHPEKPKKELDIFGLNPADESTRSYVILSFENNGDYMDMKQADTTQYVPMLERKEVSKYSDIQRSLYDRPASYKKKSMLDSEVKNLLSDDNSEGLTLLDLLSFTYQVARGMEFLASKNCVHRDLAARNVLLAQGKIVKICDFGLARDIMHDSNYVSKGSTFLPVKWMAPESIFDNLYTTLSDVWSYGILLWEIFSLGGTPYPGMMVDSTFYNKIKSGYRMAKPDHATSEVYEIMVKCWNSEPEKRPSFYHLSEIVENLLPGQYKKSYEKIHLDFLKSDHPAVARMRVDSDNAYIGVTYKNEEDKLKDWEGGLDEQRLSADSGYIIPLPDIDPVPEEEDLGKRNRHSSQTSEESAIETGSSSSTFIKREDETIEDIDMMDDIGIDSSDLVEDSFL
# PKCθ(h) = PKCθ(h) (Homo sapiens, UniProt Q04759)
# Chain of PKCθ(h) (Q04759 whole entry): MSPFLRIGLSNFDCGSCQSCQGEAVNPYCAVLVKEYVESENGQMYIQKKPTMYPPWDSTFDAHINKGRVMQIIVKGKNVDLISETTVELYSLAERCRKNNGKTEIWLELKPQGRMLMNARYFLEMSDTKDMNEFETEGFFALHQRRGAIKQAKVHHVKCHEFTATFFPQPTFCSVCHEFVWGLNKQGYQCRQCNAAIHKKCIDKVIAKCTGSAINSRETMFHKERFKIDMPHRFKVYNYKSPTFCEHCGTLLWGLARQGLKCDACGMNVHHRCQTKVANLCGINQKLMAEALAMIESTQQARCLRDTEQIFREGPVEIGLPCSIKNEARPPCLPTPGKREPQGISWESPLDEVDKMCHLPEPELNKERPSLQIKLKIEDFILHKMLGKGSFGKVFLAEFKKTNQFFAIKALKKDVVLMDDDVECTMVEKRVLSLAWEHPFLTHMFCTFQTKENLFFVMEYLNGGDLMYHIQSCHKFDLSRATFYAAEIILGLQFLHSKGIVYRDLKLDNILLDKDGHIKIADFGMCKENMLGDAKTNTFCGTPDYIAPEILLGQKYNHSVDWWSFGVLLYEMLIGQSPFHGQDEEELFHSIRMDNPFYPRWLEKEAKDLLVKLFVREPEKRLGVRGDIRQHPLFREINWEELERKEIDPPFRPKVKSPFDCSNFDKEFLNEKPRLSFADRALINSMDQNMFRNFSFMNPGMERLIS
# PAR-1Bα(h) = PAR-1Bα(h) (Homo sapiens, UniProt Q7KZI7)
# Chain of PAR-1Bα(h) (Q7KZI7 1-725 isoform Q7KZI7-4): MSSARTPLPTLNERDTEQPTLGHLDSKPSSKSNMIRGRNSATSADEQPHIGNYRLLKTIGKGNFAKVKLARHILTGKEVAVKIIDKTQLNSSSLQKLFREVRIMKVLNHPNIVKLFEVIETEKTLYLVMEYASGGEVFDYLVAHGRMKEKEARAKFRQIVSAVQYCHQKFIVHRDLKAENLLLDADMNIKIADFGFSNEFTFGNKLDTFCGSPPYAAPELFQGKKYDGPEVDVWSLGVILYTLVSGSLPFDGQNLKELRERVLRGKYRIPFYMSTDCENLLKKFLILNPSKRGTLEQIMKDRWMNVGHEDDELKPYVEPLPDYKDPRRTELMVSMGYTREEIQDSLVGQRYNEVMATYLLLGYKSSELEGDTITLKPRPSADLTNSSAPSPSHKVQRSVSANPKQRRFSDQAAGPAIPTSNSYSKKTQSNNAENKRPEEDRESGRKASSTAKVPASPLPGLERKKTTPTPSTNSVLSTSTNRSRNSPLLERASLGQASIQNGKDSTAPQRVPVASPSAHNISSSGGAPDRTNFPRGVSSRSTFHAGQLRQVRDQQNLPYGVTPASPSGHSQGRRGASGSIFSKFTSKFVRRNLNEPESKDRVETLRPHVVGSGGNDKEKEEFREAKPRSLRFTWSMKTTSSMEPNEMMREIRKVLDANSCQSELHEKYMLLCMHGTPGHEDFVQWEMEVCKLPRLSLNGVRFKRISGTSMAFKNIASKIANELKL
# MELK(h) = MELK(h) (Homo sapiens, UniProt Q14680)
# Chain of MELK(h) (Q14680 whole entry): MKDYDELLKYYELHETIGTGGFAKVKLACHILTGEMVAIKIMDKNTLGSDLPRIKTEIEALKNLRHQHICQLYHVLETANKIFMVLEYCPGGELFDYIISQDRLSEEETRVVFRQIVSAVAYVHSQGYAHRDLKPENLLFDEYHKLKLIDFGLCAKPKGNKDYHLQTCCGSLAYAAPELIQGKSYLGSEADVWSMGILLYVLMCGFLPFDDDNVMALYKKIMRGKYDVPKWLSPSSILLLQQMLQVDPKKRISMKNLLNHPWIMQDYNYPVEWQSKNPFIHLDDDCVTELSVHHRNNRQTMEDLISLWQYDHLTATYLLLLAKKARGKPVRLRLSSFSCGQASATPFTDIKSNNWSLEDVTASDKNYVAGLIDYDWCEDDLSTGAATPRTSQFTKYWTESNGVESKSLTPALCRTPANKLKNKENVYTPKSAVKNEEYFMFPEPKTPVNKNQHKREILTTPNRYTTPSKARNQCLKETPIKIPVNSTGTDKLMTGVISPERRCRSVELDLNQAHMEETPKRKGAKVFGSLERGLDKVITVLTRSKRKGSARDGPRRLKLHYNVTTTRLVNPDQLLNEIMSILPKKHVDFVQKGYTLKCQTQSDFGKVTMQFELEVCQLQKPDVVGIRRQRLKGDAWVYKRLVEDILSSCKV
# SAPK2b(h) = SAPK2b(h) (Homo sapiens, UniProt Q15759)
# Chain of SAPK2b(h) (Q15759 whole entry): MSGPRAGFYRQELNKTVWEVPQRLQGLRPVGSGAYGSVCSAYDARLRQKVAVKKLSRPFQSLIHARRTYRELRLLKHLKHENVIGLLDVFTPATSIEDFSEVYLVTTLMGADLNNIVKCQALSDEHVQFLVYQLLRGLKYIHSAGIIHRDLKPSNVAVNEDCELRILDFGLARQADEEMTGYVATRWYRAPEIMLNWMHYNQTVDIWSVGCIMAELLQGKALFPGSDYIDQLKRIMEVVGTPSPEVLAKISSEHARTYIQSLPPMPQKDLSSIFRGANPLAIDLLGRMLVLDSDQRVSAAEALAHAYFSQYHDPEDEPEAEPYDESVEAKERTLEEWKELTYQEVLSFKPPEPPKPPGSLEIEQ
# SGK(h) = biological target: T2, SGK(h) (Homo sapiens, UniProt O00141)
# T2 sequence (O00141 1-431): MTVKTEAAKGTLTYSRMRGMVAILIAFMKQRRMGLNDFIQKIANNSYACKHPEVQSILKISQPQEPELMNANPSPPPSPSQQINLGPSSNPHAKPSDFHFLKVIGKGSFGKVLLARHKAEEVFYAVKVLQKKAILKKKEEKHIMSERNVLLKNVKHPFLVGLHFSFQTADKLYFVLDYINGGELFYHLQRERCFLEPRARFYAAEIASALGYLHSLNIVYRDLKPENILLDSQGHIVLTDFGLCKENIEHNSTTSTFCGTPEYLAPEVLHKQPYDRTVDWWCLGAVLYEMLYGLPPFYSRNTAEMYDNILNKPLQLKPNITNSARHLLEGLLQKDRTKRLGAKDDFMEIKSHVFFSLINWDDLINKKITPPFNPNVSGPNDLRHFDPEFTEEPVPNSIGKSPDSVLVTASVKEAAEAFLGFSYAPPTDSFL
# JNK3(h) = JNK3(h) (Homo sapiens, UniProt P53779)
# Chain of JNK3(h) (P53779 whole entry): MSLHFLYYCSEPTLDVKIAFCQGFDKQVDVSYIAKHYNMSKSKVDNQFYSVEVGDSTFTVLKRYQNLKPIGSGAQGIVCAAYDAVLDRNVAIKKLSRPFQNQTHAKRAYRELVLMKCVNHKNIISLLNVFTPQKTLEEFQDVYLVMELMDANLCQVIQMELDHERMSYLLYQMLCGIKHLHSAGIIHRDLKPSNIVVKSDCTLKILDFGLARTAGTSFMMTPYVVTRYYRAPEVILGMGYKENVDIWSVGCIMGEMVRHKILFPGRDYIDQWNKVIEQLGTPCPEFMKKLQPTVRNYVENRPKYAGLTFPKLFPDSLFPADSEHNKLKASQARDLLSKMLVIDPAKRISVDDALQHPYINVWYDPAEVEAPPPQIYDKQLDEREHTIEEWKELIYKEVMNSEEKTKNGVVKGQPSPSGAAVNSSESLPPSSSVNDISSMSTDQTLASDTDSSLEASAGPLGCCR
# FGFR2(h) = FGFR2(h) (Homo sapiens, UniProt P21802)
# Chain of FGFR2(h) (P21802 22-821): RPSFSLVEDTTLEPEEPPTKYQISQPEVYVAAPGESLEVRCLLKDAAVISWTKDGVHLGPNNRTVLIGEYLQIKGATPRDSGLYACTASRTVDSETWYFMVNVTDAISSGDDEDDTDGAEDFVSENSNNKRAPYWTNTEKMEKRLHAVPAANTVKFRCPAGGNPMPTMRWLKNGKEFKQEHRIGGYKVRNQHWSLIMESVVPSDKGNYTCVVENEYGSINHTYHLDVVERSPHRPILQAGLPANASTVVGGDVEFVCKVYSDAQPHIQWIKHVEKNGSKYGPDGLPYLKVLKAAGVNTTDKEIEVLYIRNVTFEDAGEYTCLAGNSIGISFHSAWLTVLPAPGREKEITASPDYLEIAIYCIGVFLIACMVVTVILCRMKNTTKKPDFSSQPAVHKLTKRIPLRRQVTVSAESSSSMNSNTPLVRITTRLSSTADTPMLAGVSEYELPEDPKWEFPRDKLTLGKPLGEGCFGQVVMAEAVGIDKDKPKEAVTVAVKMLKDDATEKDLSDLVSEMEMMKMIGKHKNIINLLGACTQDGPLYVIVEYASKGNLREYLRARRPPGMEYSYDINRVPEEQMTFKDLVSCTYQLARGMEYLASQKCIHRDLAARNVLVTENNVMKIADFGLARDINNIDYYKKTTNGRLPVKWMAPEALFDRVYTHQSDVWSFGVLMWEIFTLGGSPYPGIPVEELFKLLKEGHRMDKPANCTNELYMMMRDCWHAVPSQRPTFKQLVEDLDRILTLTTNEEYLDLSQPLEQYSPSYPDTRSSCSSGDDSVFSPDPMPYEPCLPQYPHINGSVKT
# IKKβ(h) = biological target: T3, IKKβ(h) (Homo sapiens, UniProt O14920)
# T3 sequence (O14920 1-756): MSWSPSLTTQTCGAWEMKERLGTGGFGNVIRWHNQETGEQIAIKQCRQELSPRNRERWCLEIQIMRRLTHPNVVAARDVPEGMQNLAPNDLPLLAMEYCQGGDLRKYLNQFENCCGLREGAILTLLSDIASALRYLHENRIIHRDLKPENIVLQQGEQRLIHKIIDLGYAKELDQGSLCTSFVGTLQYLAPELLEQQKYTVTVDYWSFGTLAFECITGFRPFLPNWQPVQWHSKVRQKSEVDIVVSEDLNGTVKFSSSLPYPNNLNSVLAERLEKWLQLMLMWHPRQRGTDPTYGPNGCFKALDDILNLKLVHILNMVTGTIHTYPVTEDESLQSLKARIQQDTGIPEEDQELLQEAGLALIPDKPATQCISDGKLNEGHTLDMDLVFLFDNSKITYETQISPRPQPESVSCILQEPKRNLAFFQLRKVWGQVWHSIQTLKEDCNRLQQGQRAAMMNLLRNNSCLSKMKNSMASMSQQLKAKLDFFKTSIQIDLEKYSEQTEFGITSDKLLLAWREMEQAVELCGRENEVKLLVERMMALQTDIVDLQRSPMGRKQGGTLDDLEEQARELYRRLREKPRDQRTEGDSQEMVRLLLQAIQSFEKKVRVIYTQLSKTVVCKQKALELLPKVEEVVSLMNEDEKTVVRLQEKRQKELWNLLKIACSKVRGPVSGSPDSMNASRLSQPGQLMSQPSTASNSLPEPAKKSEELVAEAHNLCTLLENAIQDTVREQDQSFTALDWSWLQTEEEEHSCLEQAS
smiles,measurement,setting,value
"CC(C)CCC(=O)[C@]1(O)C(O)=C(C(=O)C(C)C)C(=O)[C@H]1CCC(C)C [TH2, tetrahydroiso-cohumulone]",kinase inhibition,DRAK1(h); 1 μg/ml,103% of control
same,kinase inhibition,DRAK1(h); 5 μg/ml,106% of control
same,kinase inhibition,DRAK1(h); 25 μg/ml,107% of control
same,kinase inhibition,DRAK1(h); 50 μg/ml,93% of control
same,kinase inhibition,DRAK1(h); 100 μg/ml,79% of control
same,kinase inhibition,PDGFRα(V561D)(h); 1 μg/ml,115% of control
same,kinase inhibition,PDGFRα(V561D)(h); 5 μg/ml,126% of control
same,kinase inhibition,PDGFRα(V561D)(h); 25 μg/ml,116% of control
same,kinase inhibition,PDGFRα(V561D)(h); 50 μg/ml,111% of control
same,kinase inhibition,PDGFRα(V561D)(h); 100 μg/ml,103% of control
same,kinase inhibition,PKCθ(h); 1 μg/ml,101% of control
same,kinase inhibition,PKCθ(h); 5 μg/ml,84% of control
same,kinase inhibition,PKCθ(h); 25 μg/ml,116% of control
same,kinase inhibition,PKCθ(h); 50 μg/ml,96% of control
same,kinase inhibition,PKCθ(h); 100 μg/ml,83% of control
same,kinase inhibition,PAR-1Bα(h); 1 μg/ml,109% of control
same,kinase inhibition,PAR-1Bα(h); 5 μg/ml,113% of control
same,kinase inhibition,PAR-1Bα(h); 25 μg/ml,114% of control
same,kinase inhibition,PAR-1Bα(h); 50 μg/ml,116% of control
same,kinase inhibition,PAR-1Bα(h); 100 μg/ml,88% of control
same,kinase inhibition,MELK(h); 1 μg/ml,116% of control
same,kinase inhibition,MELK(h); 5 μg/ml,104% of control
same,kinase inhibition,MELK(h); 25 μg/ml,102% of control
same,kinase inhibition,MELK(h); 50 μg/ml,98% of control
same,kinase inhibition,MELK(h); 100 μg/ml,83% of control
same,kinase inhibition,SAPK2b(h); 1 μg/ml,117% of control
same,kinase inhibition,SAPK2b(h); 5 μg/ml,110% of control
same,kinase inhibition,SAPK2b(h); 25 μg/ml,108% of control
same,kinase inhibition,SAPK2b(h); 50 μg/ml,108% of control
same,kinase inhibition,SAPK2b(h); 100 μg/ml,111% of control
same,kinase inhibition,SGK(h); 1 μg/ml,106% of control
same,kinase inhibition,SGK(h); 5 μg/ml,96% of control
same,kinase inhibition,SGK(h); 25 μg/ml,97% of control
same,kinase inhibition,SGK(h); 50 μg/ml,92% of control
same,kinase inhibition,SGK(h); 100 μg/ml,76% of control
same,kinase inhibition,JNK3(h); 1 μg/ml,110% of control
same,kinase inhibition,JNK3(h); 5 μg/ml,108% of control
same,kinase inhibition,JNK3(h); 25 μg/ml,80% of control
same,kinase inhibition,JNK3(h); 50 μg/ml,92% of control
same,kinase inhibition,JNK3(h); 100 μg/ml,88% of control
same,kinase inhibition,FGFR2(h); 1 μg/ml,111% of control
same,kinase inhibition,FGFR2(h); 5 μg/ml,98% of control
same,kinase inhibition,FGFR2(h); 25 μg/ml,102% of control
same,kinase inhibition,FGFR2(h); 50 μg/ml,96% of control
same,kinase inhibition,FGFR2(h); 100 μg/ml,78% of control
same,kinase inhibition,IKKβ(h); 1 μg/ml,111% of control
same,kinase inhibition,IKKβ(h); 5 μg/ml,107% of control
same,kinase inhibition,IKKβ(h); 25 μg/ml,94% of control
same,kinase inhibition,IKKβ(h); 50 μg/ml,77% of control
same,kinase inhibition,IKKβ(h); 100 μg/ml,76% of control

# Source: patent US20100137449A1, “SUBSTITUTED 1,3-CYCLOPENTADIONE MULTI-TARGET PROTEIN KINASE MODULATORS OF CANCER, ANGIOGENESIS AND THE INFLAMMATORY PATHWAYS ASSOCIATED THEREWITH” (METAPROTEOMICS, LLC, priority 2007, published 2010)
